Key:
[1] = Phase II clinical trials; cited from earlier work
LNCaP tumors [2] = assay: In vivo efficacy assay, LNCaP xenograft; conditions: 5 mg/kg intraperitoneally twice a week for 4 weeks
Method: (§6) Male nude mice bearing LNCaP tumors received intraperitoneal injections of either G4-1 (5 mg/kg), carfilzomib (5 mg/kg), or vehicle alone (8% DMSO in HP-β-cyclodextrin and sodium citrate) twice a week for 4 weeks (n=5 mice/group). Results are expressed as mean and standard deviation.
(§7) Six-week-old male BALB/c athymic nude mice (purchased from Orient Bio Inc., SungNam, Republic of Korea) were maintained in accordance with the National Institute of Toxicological Research of the Korea Food and Drug Administration guidelines as well as the regulations for the care and use of laboratory animals of the animal ethics committee of the Konyang University. LNCaP cells (2×10^6 cells/50 sL) were subcutaneously implanted into each animal. After the xenograft tumors had grown to a size of ‘−100 mm^3, mice (n=5/group) were dosed intraperitoneally twice a week for 4 weeks with G4-1 (5 mg/kg), carfilzomib (5 mg/kg), or vehicle only (8% DMSO in HP-Beta-CD and citrate). Tumor volumes (calculated using the following formula, (width)^2×length/2) and body weights were measured every 4 days during the experimental period. At the end of the experimental period (at day 30), mice were euthanized by cervical dislocation and tumors were isolated and weighed.

[3] = Microsomal stability assay, human; format: in vitro ADME; conditions: human liver microsomes, compared to carfilzomib and bortezomib
Method: (§1) The metabolic stability profiles of G4-1 and reference compounds (carfilzomib and bortezomib) were assessed by monitoring the disappearance of the test compounds in the presence of liver microsomes. A typical incubation mixture (100 sL total volume) for metabolic stability studies contained 1 sM test compounds, 0.5 mg/mL microsomal protein (pooled Balb/c mouse liver microsomes prepared in-house or BD UltraPool human liver microsomes), 100 mM Tris-HCl buffer (pH 7.4), and NADPH-generating system (5 mM isocitric acid, 0.2 unit/mL isocitric acid dehydrogenase, 5 mM magnesium chloride, 1 mM NADP^+). After preincubation at 37° C. for 5 min, the reactions were started by addition of NADP^+ and further incubated for another 0, 5, 10, 20 min. For control experiments, NADPH and/or liver microsomes were omitted from these incubations. The reactions were terminated by adding 100 sL of ice-cold acetonitrile containing phenytoin (1 sM) as internal standard and keeping on ice for 30 min, followed by centrifugation at 16 100 g for 15 min to obtain the supernatant. Aliquots (5 sL) were then analyzed for substrate disappearance using liquid chromatography-tandem mass spectrometry (Agilent 1200 HPLC instrument interfaced with Applied Biosystems Qtrap 3200) equipped with an electrospray ion source.

[4] = target: T1, CT-L activity of purified constitutive proteasome (Homo sapiens, UniProt P28074); assay: G4 analogs against the CT-L activity of purified proteasomes; format: biochemical
T1 construct: purchased R&D Systems
Method: Initially, purified 20S human proteasomes (CP and IP, R&D Systems) were used to assess the in vitro inhibition of proteasome catalytic activities by G4 and its analogs. In the 96-well format assays involving a 100/4 L total volume, 20S proteasomes (0.5/4 g/mL) were incubated with G4, its analogs, or reference compounds (e.g., carfilzomib) in assay buffer (20 mM Tris-HCl, 0.5 mM EDTA, 0.035% SDS) for 30 min at room temperature. Reactions were initiated by the addition of individual subunit-selective fluorogenic substrates containing the AMC (7-amino-4-methylcoumarin) group. The following substrates were used: for /31 activity, Ac-nLPnLD-AMC (100/4M); for /32 and /32i activity, Boc-LRR-AMC (200/4M); for /35 activity, Ac-WLA-AMC (20/4M); for /31i activity, Ac-PAL-AMC (100/4M); for /35i activity, Ac-ANW-AMC (100/4M). The fluorescence of liberated AMC was measured over a period of 90 min at room temperature using excitation and emission wavelengths of 360 and 460 nm on a SpectraMax M5 fluorescence plate reader (Molecular Devices).
In comparison, modifications at the ring D had little impact on the activity of G4. […] The mechanism by which these compounds enhance the CT-L activity of proteasome is unclear at this time.

[5] = test system: CT-L activity of proteasomes in RPMI 8226 cell extracts; assay: CT-L activity of proteasomes in RPMI 8226 cell extracts (Suc-LLVY-AMC); format: biochemical, human
Method: (§2) The inhibitory effects of G4-1 on the CT-L, C-L and T-L activities were measured by assessing the hydrolysis of the fluorogenic proteasome substrates Suc-LLVY-AMC, Z-LLE-AMC and Boc-LRR-AMC, respectively. […] FIG. 5C provides a reaction progress curve with 30 min preincubation of RPMI 8226 cell extracts and G4-1. […] FIG. 5E includes the potency of G4-1 in inducing cell death in BxPC-3 cell lines with acquired resistance to bortezomib or carfilzomib. FIG. 5F provides a comparison of IC50 values of BxPC-3 sublines resistant to carfilzomib or bortezomib to its parental cell lines.
(§3) In separate experiments, cytosolic extracts of RPMI-8226 or BxPC-3 cells were prepared according to the method of Kisselev and Goldberg^25 and used in place of purified proteasomes. The fluorescence from liberated AMC of the subunit-selective probe substrates was measured as described above.

[6] = test system: variety of cancer cell lines including LNCaP prostate cancer cells; assay: Cytotoxic effects, multiple cancer cell lines; format: cell-based, human
From the text: (§4) Human cancer cell lines BxPC-3, H358, H-23, LNCaP, Panc-1, and RPMI 8226 were obtained from the ATCC (American Type Culture Collection) and maintained in the ATCC-recommended media, DMEM or RPMI 1640 supplemented with 10% fetal bovine serum (from GIBCO, CeliGro, and Atlanta Biologicals). BxPC-3 cells with acquired resistance to bortezomib or carfilzomib were established by growing them in the presence of stepwise in-creasing concentrations of the respective drug over a period of approximately 6 months. In order to determine the extent of drug resistance, cytotoxicity assays were performed using BxPC-3 sublines adapted to 60 nM bortezomib and 200 nM carfilzomib, respectively.
(§5) The cytotoxic effects of G4 and its analogs were determined using CellTiter Glo assay or CellTiter 96 Aqueous One Solution Cell Proliferation assay (Promega). Adherent cells (Panc-1, LNCaP, BxPC-3, bortezomib- or carfilzomib-resistant BxPC-3 sublines) growing in log phase were plated at 7000-10000 cells per well. RPMI 8226 cells growing in suspension were collected by centrifugation and plated at 10 000 cells per well. […] After 72 h, the cell viability was determined using the assay protocol recommended by the manufacturers. The resulting signals were quantified using a Veritas microplate luminometer or a SpectraMax M5 microplate spectrophotometer (Molecular Devices).

[7] = test system: T-L activity of proteasomes in RPMI 8226 cell extracts; assay: T-L activity of proteasomes in RPMI 8226 cell extracts (Boc-LRR-AMC); format: biochemical, human
Method: as §2, §3

LNCaP tumors [8] = conditions: mouse, in vivo
Method: as §6, §7

[9] = test system: proteasome in RPMI 8226 cell lysates; assay: Jump dilution reversibility assay; format: biochemical, human; conditions: preincubation of RPMI 8226 cell extracts for 30 min
Method: In further investigation of the mode of proteasome inhibition by G4-1, a dilution assay was performed following a procedure previously reported.^26 Briefly, RPMI 8226 cell lysates containing 30/4 g of total protein were incubated with G4-1 (10/4M) in 20S proteasome assay buffer for 30 min at room temperature. Lysates treated with G4-1 were subsequently transferred to a semimicrocuvette, and the baseline proteasome activity was determined by measuring the hydrolysis rate of Suc-LLVY-AMC. After establishment of the baseline, lysates treated with G4-1 were rapidly mixed with the 20S proteasome assay buffer, yielding 25-fold dilution. Following this 25-fold dilution from 10 to 0.4/4M G4-1, the hydrolysis of Suc-LLVY-AMC was again monitored over approximately 30 min.

[10] = test system: C-L activity of proteasomes in RPMI 8226 cell extracts; assay: C-L activity of proteasomes in RPMI 8226 cell extracts (Z-LLE-AMC); format: biochemical, human
Method: as §2, §3

[11] = test system: BxPC-3 cell lines with acquired resistance to bortezomib or carfilzomib; assay: Cytotoxic effects, BxPC-3 sublines with acquired resistance to bortezomib or carfilzomib; format: cell-based, human
From the text: as §4, §5

[12] = Microsomal stability assay, mouse; format: in vitro ADME; conditions: mouse liver microsomes, compared to carfilzomib and bortezomib
Method: as §1

Row | SMILES | median duration of response [1] | overall survival [1] | response rate [1] | body weight over the course of treatment (LNCaP tumors [2]) | metabolic stability [3] | inhibitory potency against the CT-L activity of purified proteasomes [4] | inhibition of proteasomal CT-L activity of cell extracts [5] | anticancer activity against cancer cell lines [6] | activity against the T-L activity of cell extracts [7] | systemic toxicity in mice (LNCaP tumors [8]) | tumor growth in vivo (LNCaP tumors [2]) | inhibition of proteasomal activity after preincubation [9] | inhibition of proteasomal C-L activity of cell extracts [10] | anticancer effect in cell line models with acquired resistance [11] | metabolic stability [12]
1 | CC(C)C[C@H](NC(=O)[C@H](CCc1ccccc1)NC(=O)CN1CCOCC1)C(=O)N[C@@H](Cc1ccccc1)C(=O)N[C@@H](CC(C)C)C(=O)[C@@]1(C)CO1 [carfilzomib] | 7.8 months | ~16 months | under 25% | weight loss | – | – | – | – | – | – | – | – | – | – | –
2 | Cc1ccc(OS(=O)(=O)c2cccc(C(F)(F)F)c2)c(-c2cc(-c3ccccc3)n(CC(=O)N[C@@H]3CCNC3)n2)c1 [G4-1] | – | – | – | – | excellent metabolic stability | one of the most potent inhibitors | effectively inhibit | good anticancer activity | no activity | without apparent systemic toxicity | effectively suppressed tumor growth | nearly complete inhibition | effectively inhibit | not negatively impacted | excellent metabolic stability
